In the assay the test system is snoring of a treated person. Briefly: anti-snoring effect when applied in the pharynx via the mouth. To be noted: active component; test details not given. Format: in vivo. An excerpt: The invention provides for this purpose a composition for reducing snoring, comprising at least an active quantity of at least one active component with astringent properties and a physiologically acceptable excipient. Such a composition is preferably applied in the pharynx. […] The composition according to the invention can be applied usefully not only in the domestic domain but also in professional situations where a plurality of people must necessarily sleep in the same space, such as in a dormitory, a hospital or military barracks. […] All formulations are based on water: the shown percentages by weight are thus supplemented to 100% with water. Composition A is a liquid composition which can be used for applying with a spray or as droplets. Composition B is a gel formulation. Composition C is a foam.

The source of these data is patent US8865229B2, “Marrubiin and composition for reducing snoring, package and method” (Puranox Medical B.V., priority 2005, dated 2014).

Turning to `C[C@@H]1C[C@H]2OC(=O)[C@@]3(C)CCC[C@@](C)([C@@H]23)[C@@]1(O)CCc1ccoc1` [Marrubiin, 6-(2-furan-3-yl-ethyl)-6-hydroxy-2a,5a,7-trimethyldekahydronafto[1,8-bc]furan-2-on], the “anti-snoring effect / effects on the level of snoring of a treated person” value is listed as “particularly good anti-snoring effect”.
